Data taken from US20170190671A1, “BIS(ARYL)CATECHOL DERIVATIVES AS HERBICIDES” (E I DU PONT DE NEMOURS AND COMPANY, priority 2014, published 2017).

Legend:
Type in all cases: in vivo
[1] = tested on: pigweed (Amaranthus retroflexus); test: Test A postemergence; details: 0 to 100 scale; for pest or weed control at 31 g/ha / pest or weed control at 125 g/ha: Amaranthus retroflexus, post-emergence, 240 h, read-out: Plant response rating, Pigweed
Text: (§1) Seeds of plant species selected from barnyardgrass (Echinochloa crus-galli), kochia (Kochia scoparia), ragweed (common ragweed, Ambrosia elatior), Italian ryegrass (Lolium multiflorum), large (Lg) crabgrass (Digitaria sanguinalis), giant foxtail (Setaria faberii), morningglory (Ipomoea spp.), pigweed (Amaranthus retroflexus), velvetleaf (Abutilon theophrasti), wheat (Triticum aestivum), and corn (Zea mays) were planted into a blend of loam soil and sand and treated preemergence with a directed soil spray using test chemicals formulated in a non-phytotoxic solvent mixture which included a surfactant.
(§2) At the same time, plants selected from these crop and weed species and also blackgrass (Alopecurus myosuroides), and galium (catchweed bedstraw, Galium aparine) were planted in pots containing the same blend of loam soil and sand and treated with postemergence applications of test chemicals formulated in the same manner. Plants ranged in height from 2 to 10 cm and were in the one- to two-leaf stage for the postemergence treatment. Treated plants and untreated controls were maintained in a greenhouse for approximately 10 days, after which time all treated plants were compared to untreated controls and visually evaluated for injury. Plant response ratings, summarized in Table A, are based on a 0 to 100 scale where 0 is no effect and 100 is complete control. A dash (-) response means no test result.

[2] = tested on: giant foxtail (Setaria faberii); test: Test A postemergence; details: 0 to 100 scale; for pest or weed control at 31 g/ha / pest or weed control at 125 g/ha: Setaria faberi, post-emergence, 240 h, read-out: Plant response rating, Foxtail, Giant
Text: as §1, §2

[3] = tested on: corn (Zea mays); test: Test A postemergence; details: 0 to 100 scale; for Corn plant response rating (crop injury, 0 = no effect, 100 = complete kill) at 31 g/ha / Corn plant response rating (crop injury, 0 = no effect, 100 = complete kill) at 125 g/ha: Zea mays, post-emergence, 240 h
Text: as §1, §2

[4] = tested on: kochia (Kochia scoparia); test: Test A postemergence; details: 0 to 100 scale; for pest or weed control at 31 g/ha / pest or weed control at 125 g/ha: Bassia scoparia, post-emergence, 240 h, read-out: Plant response rating, Kochia
Text: as §1, §2

[5] = tested on: wheat (Triticum aestivum); test: Test A postemergence; details: 0 to 100 scale; for plant injury at 31 g/ha / plant injury at 125 g/ha: Triticum aestivum, post-emergence, 240 h, read-out: Plant response rating, Wheat
Text: as §1, §2

[6] = tested on: galium (catchweed bedstraw, Galium aparine); test: Test A postemergence; details: 0 to 100 scale; for pest or weed control at 31 g/ha / pest or weed control at 125 g/ha: Galium, post-emergence, 240 h, read-out: Plant response rating, Galium
Text: as §1, §2

[7] = tested on: blackgrass (Alopecurus myosuroides); test: Test A postemergence; details: 0 to 100 scale; for pest or weed control at 31 g/ha / pest or weed control at 125 g/ha: Alopecurus myosuroides, post-emergence, 240 h, read-out: Plant response rating, Blackgrass
Text: as §1, §2

[8] = tested on: ragweed (common ragweed, Ambrosia elatior); test: Test A postemergence; details: 0 to 100 scale; for pest or weed control at 31 g/ha / pest or weed control at 125 g/ha: Ambrosia artemisiifolia, post-emergence, 240 h, read-out: Plant response rating, Ragweed
Text: as §1, §2

[9] = tested on: barnyardgrass (Echinochloa crus-galli); test: Test A postemergence; details: 0 to 100 scale; for pest or weed control at 31 g/ha / pest or weed control at 125 g/ha: Echinochloa crus-galli, post-emergence, 240 h, read-out: Plant response rating, Barnyardgrass
Text: as §1, §2

[10] = tested on: Italian ryegrass (Lolium multiflorum); test: Test A postemergence; details: 0 to 100 scale; for pest or weed control at 31 g/ha / pest or weed control at 125 g/ha: Lolium multiflorum, post-emergence, 240 h, read-out: Plant response rating, Ryegrass, Italian
Text: as §1, §2

[11] = tested on: pigweed (Amaranthus retroflexus); test: Test A preemergence; details: for pest or weed control at 31 g/ha / pest or weed control at 125 g/ha: Amaranthus retroflexus, pre-emergence, 240 h; for pest or weed control at 31 g/ha: read-out: Pigweed plant response rating; for pest or weed control at 125 g/ha: read-out: Plant response rating, Pigweed
Text: as §1, §2

[12] = tested on: giant foxtail (Setaria faberii); test: Test A preemergence; details: for pest or weed control at 31 g/ha / pest or weed control at 125 g/ha: Setaria faberi, pre-emergence, 240 h; for pest or weed control at 31 g/ha: read-out: Foxtail, Giant plant response rating; for pest or weed control at 125 g/ha: read-out: Plant response rating, Foxtail, Giant
Text: as §1, §2

[13] = tested on: kochia (Kochia scoparia); test: Test A preemergence; details: for pest or weed control at 31 g/ha / pest or weed control at 125 g/ha: Bassia scoparia, pre-emergence, 240 h; for pest or weed control at 31 g/ha: read-out: Kochia plant response rating; for pest or weed control at 125 g/ha: read-out: Plant response rating, Kochia
Text: as §1, §2

[14] = tested on: ragweed (common ragweed, Ambrosia elatior); test: Test A preemergence; details: for pest or weed control at 31 g/ha / pest or weed control at 125 g/ha: Ambrosia artemisiifolia, pre-emergence, 240 h; for pest or weed control at 31 g/ha: read-out: Ragweed plant response rating; for pest or weed control at 125 g/ha: read-out: Plant response rating, Ragweed
Text: as §1, §2

[15] = tested on: barnyardgrass (Echinochloa crus-galli); test: Test A preemergence; details: for pest or weed control at 31 g/ha / pest or weed control at 125 g/ha: Echinochloa crus-galli, pre-emergence, 240 h; for pest or weed control at 31 g/ha: read-out: Barnyardgrass plant response rating; for pest or weed control at 125 g/ha: read-out: Plant response rating, Barnyardgrass
Text: as §1, §2

[16] = tested on: Italian ryegrass (Lolium multiflorum); test: Test A preemergence; details: for pest or weed control at 31 g/ha / pest or weed control at 125 g/ha: Lolium multiflorum, pre-emergence, 240 h; for pest or weed control at 31 g/ha: read-out: Ryegrass, Italian plant response rating; for pest or weed control at 125 g/ha: read-out: Plant response rating, Ryegrass, Italian
Text: as §1, §2

[17] = 31 g ai/ha, 0 to 100 scale (0 no effect, 100 complete control)

## FC(F)(F)c1cnc(Oc2c(Br)cccc2Oc2ncc(Cl)cn2)s1 [Compound 6]
[1]; 31 g ai/ha
  Plant response rating, Pigweed: 50
[1]; 125 g ai/ha
  Plant response rating, Pigweed: 90
[2]; 31 g ai/ha
  Plant response rating, Foxtail, Giant: 10
[2]; 125 g ai/ha
  Plant response rating, Foxtail, Giant: 60
[3]; 31 g ai/ha
  Plant response rating, Corn: 0
[3]; 125 g ai/ha
  Plant response rating, Corn: 10
[4]; 31 g ai/ha
  Plant response rating, Kochia: 70
[4]; 125 g ai/ha
  Plant response rating, Kochia: 100
[5]; 31 g ai/ha
  Plant response rating, Wheat: 0
[5]; 125 g ai/ha
  Plant response rating, Wheat: 10
[6]; 31 g ai/ha
  Plant response rating, Galium: 70
[6]; 125 g ai/ha
  Plant response rating, Galium: 100
[7]; 31 g ai/ha
  Plant response rating, Blackgrass: 10
[7]; 125 g ai/ha
  Plant response rating, Blackgrass: 40
[8]; 31 g ai/ha
  Plant response rating, Ragweed: 0
[8]; 125 g ai/ha
  Plant response rating, Ragweed: 20
[9]; 31 g ai/ha
  Plant response rating, Barnyardgrass: 10
[9]; 125 g ai/ha
  Plant response rating, Barnyardgrass: 100
[10]; 31 g ai/ha
  Plant response rating, Ryegrass, Italian: 0
[10]; 125 g ai/ha
  Plant response rating, Ryegrass, Italian: 50
[11]; [17]
  Pigweed plant response rating: 30
[11]; 125 g ai/ha, 0 to 100 scale
  Plant response rating, Pigweed: 90
[12]; [17]
  Foxtail, Giant plant response rating: 60
[12]; 125 g ai/ha, 0 to 100 scale
  Plant response rating, Foxtail, Giant: 100
[13]; [17]
  Kochia plant response rating: 30
[13]; 125 g ai/ha, 0 to 100 scale
  Plant response rating, Kochia: 80
[14]; [17]
  Ragweed plant response rating: 0
[14]; 125 g ai/ha, 0 to 100 scale
  Plant response rating, Ragweed: 0
[15]; [17]
  Barnyardgrass plant response rating: 20
[15]; 125 g ai/ha, 0 to 100 scale
  Plant response rating, Barnyardgrass: 70
[16]; [17]
  Ryegrass, Italian plant response rating: 0
[16]; 125 g ai/ha, 0 to 100 scale
  Plant response rating, Ryegrass, Italian: 20

## N#Cc1cccc(Oc2ncc(Br)cn2)c1Oc1cccnc1 [Compound 7]
[1]; 31 g ai/ha
  pest or weed control at 31 g/ha: 10%
[1]; 125 g ai/ha
  pest or weed control at 125 g/ha: 20%
[2]; 31 g ai/ha
  pest or weed control at 31 g/ha: 0%
[2]; 125 g ai/ha
  pest or weed control at 125 g/ha: 0%
[3]; 31 g ai/ha
  Corn plant response rating (crop injury, 0 = no effect, 100 = complete kill) at 31 g/ha: 0%
[3]; 125 g ai/ha
  Corn plant response rating (crop injury, 0 = no effect, 100 = complete kill) at 125 g/ha: 10%
[4]; 31 g ai/ha
  pest or weed control at 31 g/ha: 0%
[4]; 125 g ai/ha
  pest or weed control at 125 g/ha: 10%
[5]; 31 g ai/ha
  plant injury at 31 g/ha: 0%
[5]; 125 g ai/ha
  plant injury at 125 g/ha: 0%
[6]; 31 g ai/ha
  pest or weed control at 31 g/ha: 10%
[6]; 125 g ai/ha
  pest or weed control at 125 g/ha: 10%
[7]; 31 g ai/ha
  pest or weed control at 31 g/ha: 0%
[7]; 125 g ai/ha
  pest or weed control at 125 g/ha: 0%
[8]; 31 g ai/ha
  pest or weed control at 31 g/ha: 0%
[8]; 125 g ai/ha
  pest or weed control at 125 g/ha: 0%
[9]; 31 g ai/ha
  pest or weed control at 31 g/ha: 0%
[9]; 125 g ai/ha
  pest or weed control at 125 g/ha: 0%
[10]; 31 g ai/ha
  pest or weed control at 31 g/ha: 0%
[10]; 125 g ai/ha
  pest or weed control at 125 g/ha: 0%
[11]; [17]
  pest or weed control at 31 g/ha: 0%
[11]; 125 g ai/ha, 0 to 100 scale
  pest or weed control at 125 g/ha: 0%
[12]; [17]
  pest or weed control at 31 g/ha: 0%
[12]; 125 g ai/ha, 0 to 100 scale
  pest or weed control at 125 g/ha: 0%
[13]; [17]
  pest or weed control at 31 g/ha: 0%
[13]; 125 g ai/ha, 0 to 100 scale
  pest or weed control at 125 g/ha: 0%
[14]; [17]
  pest or weed control at 31 g/ha: 0%
[14]; 125 g ai/ha, 0 to 100 scale
  pest or weed control at 125 g/ha: 0%
[15]; [17]
  pest or weed control at 31 g/ha: 0%
[15]; 125 g ai/ha, 0 to 100 scale
  pest or weed control at 125 g/ha: 0%
[16]; [17]
  pest or weed control at 31 g/ha: 0%
[16]; 125 g ai/ha, 0 to 100 scale
  pest or weed control at 125 g/ha: 0%

## N#Cc1cccc(Oc2ncc(Cl)cn2)c1Oc1cccnc1 [Compound 8]
[1]; 31 g ai/ha
  pest or weed control at 31 g/ha: 10%
[1]; 125 g ai/ha
  pest or weed control at 125 g/ha: 20%
[2]; 31 g ai/ha
  pest or weed control at 31 g/ha: 0%
[2]; 125 g ai/ha
  pest or weed control at 125 g/ha: 0%
[3]; 31 g ai/ha
  Corn plant response rating (crop injury, 0 = no effect, 100 = complete kill) at 31 g/ha: 0%
[3]; 125 g ai/ha
  Corn plant response rating (crop injury, 0 = no effect, 100 = complete kill) at 125 g/ha: 10%
[4]; 31 g ai/ha
  pest or weed control at 31 g/ha: 10%
[4]; 125 g ai/ha
  pest or weed control at 125 g/ha: 30%
[5]; 31 g ai/ha
  plant injury at 31 g/ha: 0%
[5]; 125 g ai/ha
  plant injury at 125 g/ha: 0%
[6]; 31 g ai/ha
  pest or weed control at 31 g/ha: 10%
[6]; 125 g ai/ha
  pest or weed control at 125 g/ha: 20%
[7]; 31 g ai/ha
  pest or weed control at 31 g/ha: 0%
[7]; 125 g ai/ha
  pest or weed control at 125 g/ha: 0%
[8]; 31 g ai/ha
  pest or weed control at 31 g/ha: 0%
[8]; 125 g ai/ha
  pest or weed control at 125 g/ha: 0%
[9]; 31 g ai/ha
  pest or weed control at 31 g/ha: 0%
[9]; 125 g ai/ha
  pest or weed control at 125 g/ha: 10%
[10]; 31 g ai/ha
  pest or weed control at 31 g/ha: 0%
[10]; 125 g ai/ha
  pest or weed control at 125 g/ha: 0%
[11]; [17]
  pest or weed control at 31 g/ha: 0%
[11]; 125 g ai/ha, 0 to 100 scale
  pest or weed control at 125 g/ha: 10%
[12]; [17]
  pest or weed control at 31 g/ha: 0%
[12]; 125 g ai/ha, 0 to 100 scale
  pest or weed control at 125 g/ha: 0%
[13]; [17]
  pest or weed control at 31 g/ha: 0%
[13]; 125 g ai/ha, 0 to 100 scale
  pest or weed control at 125 g/ha: 0%
[14]; [17]
  pest or weed control at 31 g/ha: 0%
[14]; 125 g ai/ha, 0 to 100 scale
  pest or weed control at 125 g/ha: 0%
[15]; [17]
  pest or weed control at 31 g/ha: 0%
[15]; 125 g ai/ha, 0 to 100 scale
  pest or weed control at 125 g/ha: 0%
[16]; [17]
  pest or weed control at 31 g/ha: 0%
[16]; 125 g ai/ha, 0 to 100 scale
  pest or weed control at 125 g/ha: 0%
